Patent US7629313B2, “Immunomodulatory polymeric antigens for treating inflammatory pathologies” (Eli Lilly and Company, priority 2003, dated 2009)

Key:
[1] = tested on: human monocyte-derived iDC; experiment: Uptake of fluorescent polymer by iDCs, confocal microscopy; format: cell-based; settings: two minutes incubation at 37° C.; labeled Compound 15 50 μg/ml, FITC-dextran 1 mg/ml
Experimental: Oregon-green labeled Compound 15 is prepared as described in PCT International Publication WO 01/79242. Briefly, Oregon-green (Molecular Probes, Eugene, Oreg.)-conjugated Lipid II is included in an MtgA-polymerization reaction at a ratio of 1:4 with unlabeled Lipid 11 to produce a 25% Oregon-green labeled polymer. The polymeric material is purified and treated as previously described. For uptake studies, fluorescent Compound 15 at a final concentration of 50 μg/ml, or Lysine-fixable FITC-conjugated dextran (40 kDa size, Molecular Probes, Eugene, Oreg.) at 1 mg/ml, is incubated with human monocyte-derived iDC prepared as described in Example 5 for two minutes at 37° C. After incubation, extracellular probe is removed by washing the cells four times in ice cold complete DC medium (Example 5). Washed cells are then incubated at 37° C. and staining is stopped at two-minute intervals by washing in 1% paraformaldehyde fix diluted in flow wash solution (which also contains the metabolic poison sodium azide; protocol described in Example 5). Glass slide samples are prepared at each time interval and sealed with clear nail polish. Samples are stored at −20° C. and protected from light until analysis on a Radiance 2100 confocal microscope (BioRad Laboratories, Hercules, Calif.).

[2] = tested on: human monocyte-derived dendritic cells; experiment: Kinetics of fluorescent polymer uptake by iDCs, flow cytometry; format: cell-based; settings: labeled Compound 15 50 μg/ml, FITC-dextran 1 mg/ml
Experimental: In these experiments, human monocyte-derived dendritic cells are prepared as described in Example 5. Dendritic cells are resuspended at 5×10^5 cells/sample and incubated […] at 37° C. At the start of each time course, cells are incubated with either fluorescent Compound 15 at a final concentration of 50 μg/ml or Lysine-fixable FITC-conjugated dextran (40 kDa size, Molecular Probes, Eugene, Oreg.) at 1 mg/ml. At 0, 2, 10, 20, 30, 40, and 50 minutes after the start of incubation, uptake is stopped by washing the cells with four washes of ice cold flow wash buffer (Example 5). The washed cells are fixed in paraformaldehyde also as described in Example 5. Stained, fixed cells are stored at 4° C. protected from light until analysis using a FC500 flow cytometer (Beckman Coulter, Miami, Fla.). Once cells are correctly gated for forward and side scatter profiles, mean fluorescent intensity of the population is evaluated for 10,000 cells/sample. […] To control for non-specific adhesion of the molecules to the cell surface (which could be read as a positive in this assay), cells are also incubated with fluorescent polymers at 0° C. […] At this temperature, signal from neither the control molecule (FITC-dextran) nor Compound 15 increases over time (FIG. 5).

FITC-Dextran
Intracellular localization of polymer in iDCs (confocal images) [1]: Localization of polymer in endocytic vacuoles
Uptake by DC at 0° C. (cells metabolically inactive) [2]: inhibited
